Laboratory results from patent US12234486B2, “Modular, microfluidic, mechanically active bioreactor for 3D, multi-tissue, tissue culture” (University of Pittsburgh—Of the Commonwealth System of …, priority 2013, dated 2025).

System: chondrocytes in the cartilage chamber
Test: RT-PCR marker expression in cartilage (top) chamber of bioreactor after hormone supply
Type: cell-based
Details: progesterone progressively added to estradiol, week 3 and 4 (10 nM, 50 nM), higher when hormones directly applied to cartilage
Experimental: FIGS. 17-20 are graphs that show differential expression of markers (as determined by RT-PCR) for a control medium that contained no estrogen or progesterone (first bar), and then different concentrations of hormones supplied to one or the other of the bioreactor chambers during week 1 (w1: 0.1 nM estradiol), week 2 (w2: 1 nM estradiol), week 3 (w3: 1 nM estradiol and 10 nM progesterone), and week 4 (w4: 0.1 nM estradiol and 50 nM progesterone). […] FIGS. 17-18 show differential expression of markers (as determined by RT-PCR) for a control medium that contained no estrogen or progesterone (first bar), and then different concentrations of hormones supplied to the chambers during week 1 (w1: 0.1 nM estradiol), week 2 (w2: 1 nM estradiol), week 3 (w3: 1 nM estradiol and 10 nM progesterone), and week 4 (w4: 0.1 nM estradiol and 50 nM progesterone).

CC(=O)[C@H]1CC[C@H]2[C@@H]3CCC4=CC(=O)CC[C@]4(C)[C@H]3CC[C@]12C [progesterone]
cartilage anabolic markers (Sox9, Aggrecan): downregulation is still present
